Measurements: patent publication US6537545B1, “Use of corneal hardening agents in enzymeorthokeratology” (ISTA Pharmaceuticals, Inc., priority 1998, dated 2003)

Assays:
Dutch Belted rabbit eyes = test: GLP safety study, slit lamp biomicroscopy and intraocular pressure (Example 3); type: in vivo
Method: This study was conducted in compliance with the Good Laboratory Practices requirements of the U.S. Food and Drug Administration. Here, 27 eyes were randomly chosen to form the control group and the remaining 27 eyes formed the experimental group. All of the animals received ophthalmic examinations consisting of slit lamp biomicroscopy (as described in Experiment 2) and intraocular pressure measurements (IOP) as generally practiced in the art, before the experiment began to establish baseline conditions.
Following baseline examinations, all rabbits received 500 IU in 20 μL of hyaluronidase into the corneal stroma bilaterally using the injection method described in Experiment 1. No examinations or treatments were performed on the animals until Study Day 8. On Study Day 8, the animals received slit lamp examinations and IOP measurements.
Treatment with topical eyedrops began immediately after the Day 8 examinations. Each rabbit received 2 drops of test agent four times a day at 05:00, 09:00, 13:00 and 17:00. The 3% glyceraldehyde solution was prepared in 0.9% sodium chloride USP under Good Manufacturing Practices (GMP). The 0.9% sodium chloride for injection was also prepared using GMP. Each rabbit eye in the experimental group received the 3% glyceraldehyde solution while the control eyes received a 0.9% sodium chloride solution. […]

[1] = test system: eyes of myopic human subjects; test: Mild myopia study, group III: corrective lenses and 3% glyceraldehyde without hyaluronidase (Example 9); type: in vivo; conditions: for UVA at follow-up after end of treatment: no hyaluronidase
Description: Given the favorable results obtained in Example 8, an additional study was undertaken to test the safety and efficacy of the method of the present invention using a larger group of subjects. In this study, a group of subjects were selected and randomly separated into three test groups to test the safety and efficacy of using hyaluronidase and a glyceraldehyde solution for treating subjects with sub-optimal visual acuity. Groups one and two received an intrastromal injection of hyaluronidase (50 and 500 IU, respectively), while group three received a control injection of saline.
Following a two week incubation period after the injection, the three groups were fitted with corrective lenses to optimize the visual acuity of the subjects. The corrective lenses were left in place for a period of time sufficient to alter the shape of the subjects' eyes so as to achieve an optimal visual acuity. This period of time was generally 2 days in length. Once an acceptable visual acuity was achieved, the subjects in the three groups received a topical 3% glyceraldehyde solution in the form of ophthalmic drops four times per day while wearing the corrective lenses. The glyceraldehyde treatment was generally administered for one month. Lens wear occurred from 8 to 12 hours during the day.
At the end of the treatment period both the lens wear and the glyceraldehyde solution administration was terminated. The general health and visual acuity of the subjects was monitored from 3 to 5 months following treatment termination.
As with groups I and II, the test subjects were examined initially to establish a baseline from which the future results of the treatment were compared. Following the establishment of a baseline reading, group III subjects were fitted with contact lenses and wore the corrective lenses at night for a period of two (2) to seven (7) days or until an acceptable visual acuity (approximately 20/20) was achieved. Unlike groups I and II, group III test subjects in this group received no injection of hyaluronidase during the course of treatment. Subjects achieving an acceptable visual acuity received the topical 3% glyceraldehyde solution in the form of ophthalmic drops four times per day (08:00, 12:00, 16:00, and 20:00) for a period of 1 month in conjunction with daytime lens wear for stabilization. During this period, lens wear occurred for approximately 8-12 hours per day and there was no nocturnal lens wear.
The subjects were examined periodically during the glyceraldehyde treatment to monitor changes in the health of the treated eyes.
At the end of the treatment period, the stabilizing lens were removed and the administration of the 3% glyceraldehyde solution was terminated. Following termination of the treatment, the subjects were examined immediately after treatment was terminated, once a week for the first four weeks after termination, and then monthly to measure changes in the visual acuity of the treated eyes. The health of the eye was also monitored. Sequelae characterized by the appearance or worsening of serious ocular symptoms or slit-lamp findings observed during these examinations was assessed. The proportions of subjects with such findings were analyzed.
The visual acuity values shown are obtained using the Snellen letters test and the Early Treatment Diabetic Retinopathy Study (ETDRS) protocol. The table values shown are the better values as compared between the results of the two methods. The subjects' baseline visual acuity ranged from 20/80 to 20/300.

O=CC(O)CO (centres unmarked) [glyceraldehyde] was tested, and the “overall deleterious effects in rabbits” value (Dutch Belted rabbit eyes; 3% glyceraldehyde solution, 32 days) was “no significant deleterious effects”, the “number of the 14 criteria (slit lamp findings, IOP) with statistically significant differences between control and glyceraldehyde treated groups” value (Dutch Belted rabbit eyes; 27 rabbits, 500 IU hyaluronidase bilaterally, 3% glyceraldehyde 2 drops four times a day, 32 days vs 0.9% sodium chloride, any timepoint) was “None” and the “overall effect on retention of orthokeratology benefits” value ([1]; glyceraldehyde treatment in the absence of hyaluronidase) was “effective in extending the retention time”. For the same compound, the “UVA at follow-up after end of treatment” value ([1]; subject 005, four month time point, baseline 20/100) was 20/100, the “UVA at follow-up after end of treatment” value ([1]; subject 006, five month time point, baseline 20/200) was 20/100 and the “UVA at follow-up after end of treatment” value ([1]; subject 012, four month time point, baseline 20/200) was 20/100. For the same compound, the “UVA at follow-up after end of treatment” value ([1]; subject 014, three month time point, baseline 20/80) was 20/50, the “UVA at follow-up after end of treatment” value ([1]; subject 016, four month time point, baseline 20/300) was 20/80 and the “UVA at follow-up after end of treatment” value ([1]; subject 016, three month point, baseline 20/300) was 20/60. For the same compound, the “UVA at follow-up after end of treatment” value ([1]; subject 021, two month time point, baseline 20/80) was 20/60 and the “UVA at follow-up after end of treatment” value ([1]; subject 032, two month time point, baseline 20/120) was 20/60.
